Data as given in patent US20080153850A1, “Adamantyl Derivates as P2x7 Receptor Antagonists” (AstraZeneca AB, priority 2004, published 2008).
Counter-ions that a name gives are not always drawn.

melting point	Structure (SMILES)
125 to 130 °C	Cc1cnc(C(=O)O)c(-c2ccc(Cl)c(C(=O)NCC34CC5CC(CC(C5)C3)C4)c2)c1 [Example 64, 3-[4-Chloro-3-[[(tricyclo[3.3.1.1^3,7]dec-1-ylmethyl)amino]carbonyl]phenyl]-5-methyl-2-pyridinecarboxylic acid]
254 °C (dec.)	O=C(NCC12CC3CC(CC(C3)C1)C2)c1cc(-c2nccnc2-c2nnn[nH]2)ccc1Cl [Example 9, 2-Chloro-5-[3(1-H-tetrazol-5-yl)pyrazinyl]-N-(tricyclo[3.3.1.1^3,7]dec-1-ylmethyl)-benzamide]
125 to 130 °C	O=C(NCC12CC3CC(CC(C3)C1)C2)c1cc(-c2cccnc2N2CCCC(C(=O)O)C2)ccc1Cl (centres unmarked) [Example 61, 1-[3-[4-Chloro-3-[[(tricyclo[3.3.1.1^3,7]dec-1-ylmethyl)amino]carbonyl]phenyl]-2-pyridinyl]-3-piperidinecarboxylic acid]
200 to 202 °C	O=C(O)c1cccc(-c2cc(C(=O)NCC34CC5CC(CC(C5)C3)C4)c(Cl)cn2)c1 [Example 7, 3-[5-Chloro-4-[[(tricyclo [3.3.1.1^3,7]dec-1-ylmethyl)amino]carbonyl]-2-pyridinyl]-benzoic acid]
136 to 140 °C	O=C(O)COc1ccc(-c2ccc(Cl)c(C(=O)NCC34CC5CC(CC(C5)C3)C4)c2)cc1 [Example 40, [[4′-Chloro-3′-[[(tricyclo[3.3.1.1^3,7]dec-1-ylmethyl)amino]carbonyl][1,1′-biphenyl]-4-yl]oxy]-acetic acid]
180 to 185 °C	Cc1ccc(-c2ccc(Cl)c(C(=O)NCC34CC5CC(CC(C5)C3)C4)c2)nc1C(=O)O [Example 71, 6-[4-Chloro-3-[[(tricyclo[3.3.1.1^3,7]dec-1-ylmethyl)amino]carbonyl]phenyl]-3-methyl-2-pyridinecarboxylic acid]
207 °C	Cc1nn(C)c(C(=O)O)c1-c1ccc(Cl)c(C(=O)NCC23CC4CC(CC(C4)C2)C3)c1 [Example 56, 4-[4-Chloro-3-[[(tricyclo[3.3.1.1^3,7]dec-1-ylmethyl)amino]carbonyl]phenyl]-1,3-dimethyl-1H-pyrazole-5-carboxylic acid]
126 to 128 °C	O=C(NCC12CC3CC(CC(C3)C1)C2)c1cc(-c2ccc(F)cc2C(=O)O)ccc1Cl [Example 51, 4′-Chloro-4-fluoro-3′-[[(tricyclo[3.3.1.1^3,7]dec-1-ylmethyl)amino]carbonyl]-[1,1′-biphenyl]-2-carboxylic acid]
170 to 173 °C	O=C(O)c1cccc(-c2ccc(Cl)c(C(=O)NCC34CC5CC(CC(C5)C3)C4)c2)n1 [Example 20, 6-[4-Chloro-3-[[(tricyclo[3.3.1.1^3,7]dec-1-ylmethyl)amino]carbonyl]phenyl]-2-pyridinecarboxylic acid]
120 to 124 °C	O=C(NCC12CC3CC(CC(C3)C1)C2)c1cc(-c2cc(F)ccc2C(=O)O)ccc1Cl [Example 36, 4′-Chloro-5-fluoro-3′-[[(tricyclo[3.3.1.1^3,7]dec-1-ylmethyl)amino]carbonyl]-[1,1′-biphenyl]-2-carboxylic acid]
121 to 124 °C	CN(CCO)c1nc(-c2ccc(Cl)c(C(=O)NCC34CC5CC(CC(C5)C3)C4)c2)ccc1C(=O)O [Example 54, 6-[4-Chloro-3-[[(tricyclo[3.3.1.1^3,7]dec-1-ylmethyl)amino]carbonyl]phenyl]-2-[(2-hydroxyethyl)methylamino]-3-pyridinecarboxylic acid]
104 to 107 °C	O=C(NCC12CC3CC(CC(C3)C1)C2)c1cc(-c2ccncc2C(=O)O)ccc1Cl [Example 70, 4-[4-Chloro-3-[[(tricyclo[3.3.1.1^3,7]dec-1-ylmethyl)amino]carbonyl]phenyl]-3-pyridinecarboxylic acid]
99 to 101 °C	O=C(O)COc1cccc(-c2ccc(Cl)c(C(=O)NCC34CC5CC(CC(C5)C3)C4)c2)c1 [Example 38, [[4′-Chloro-3′-[[(tricyclo[3.3.1.1^3,7]dec-1-ylmethyl)amino]carbonyl][1,1′-biphenyl]-3-yl]oxy]-acetic acid]
122 to 126 °C	O=C(NCC12CC3CC(CC(C3)C1)C2)c1cc(-c2ncccc2OCc2nnn[nH]2)ccc1Cl [Example 29, 2-Chloro-5-[3-(1H-tetrazol-5-ylmethoxy)-2-pyridinyl]-N-(tricyclo[3.3.1.1^3,7]dec-1-ylmethyl)-benzamide]
154 to 159 °C	O=C(NCC12CC3CC(CC(C3)C1)C2)c1cc(-c2ccc(Cl)c(C(=O)O)n2)ccc1Cl [Example 44, 3-Chloro-6-[4-chloro-3-[[(tricyclo[3.3.1.1^3,7]dec-1-ylmethyl)amino]carbonyl]phenyl]-2-pyridinecarboxylic acid]
140 to 143 °C	O=C(NCC12CC3CC(CC(C3)C1)C2)c1cc(-c2ccsc2C(=O)O)ccc1Cl [Example 19, 3-[4-Chloro-3-[[(tricyclo[3.3.1.1^3,7]dec-1-ylmethyl)amino]carbonyl]phenyl]-2-thiophenecarboxylic acid]
160 to 162 °C	CS(=O)(=O)NC(=O)c1cccc(-c2ccc(Cl)c(C(=O)NCC34CC5CC(CC(C5)C3)C4)c2)n1 [Example 25, 6-[4-Chloro-3-[[(tricyclo[3.3.1.1^3,7]dec-1-ylmethyl)amino]carbonyl]phenyl]-N-(methylsulfonyl)-2-pyridinecarboxamide]
160 to 164 °C	O=C(O)CNc1ncccc1-c1ccc(Cl)c(C(=O)NCC23CC4CC(CC(C4)C2)C3)c1 [Example 26, N-[3-[4-Chloro-3-[[(tricyclo[3.3.1.1^3,7]dec-1-ylmethyl)amino]carbonyl]phenyl]-2-pyridinyl]-glycine]
108 to 113 °C	O=C(NCC12CC3CC(CC(C3)C1)C2)c1cc(-c2c(F)cccc2C(=O)O)ccc1Cl [Example 35, 4′-Chloro-6-fluoro-3′-[[(tricyclo[3.3.1.1^3,7]dec-1-ylmethyl)amino]carbonyl]-[1,1′-biphenyl]-2-carboxylic acid]
215 to 220 °C (dec.)	N#CNc1cncc(-c2ccc(Cl)c(C(=O)NCC34CC5CC(CC(C5)C3)C4)c2)n1 [Example 4, 2-Chloro-5-[6-(cyanoamino)pyrazinyl]-N-(tricyclo[3.3.1.1^3,7]dec-1-ylmethyl)-benzamide]
194 to 195 °C (dec.)	O=C(NCC12CC3CC(CC(C3)C1)C2)c1cc(-c2nccnc2C(=O)O)ccc1Cl (as salt: sodium) [Example 6, 3-[4-Chloro-3-[[(tricyclo[3.3.1.1^3,7]dec-1-ylmethyl)amino]carbonyl]phenyl]-2-pyrazinecarboxylic acid, monosodium salt]
121 to 125 °C	O=C(NCC12CC3CC(CC(C3)C1)C2)c1cc(-c2cccnc2N2CCC[C@H]2C(=O)O)ccc1Cl [Example 60, 1-[3-[4-Chloro-3-[[(tricyclo[3.3.1.1^3,7]dec-1-ylmethyl)amino]carbonyl]phenyl]-2-pyridinyl]-L-proline]
245 °C (dec.)	CS(=O)(=O)Nc1nccnc1-c1ccc(Cl)c(C(=O)NCC23CC4CC(CC(C4)C2)C3)c1 [Example 8, 2-Chloro-5-[3-[(methylsulfonyl)amino)pyrazinyl]-N-(tricyclo[3.3.1.1^3,7]dec-1-ylmethyl)-benzamide]
